# Legend:
# [1] = tested on: C57BL/6 mice; test: Multi-dose tolerability screening of NT-beta-Actin mRNA LNPs in MC38.K-inoculated C57BL/6 mice; type: in vivo; conditions: C57BL/6 mice with MC38.K, 1.0 mg/kg IV twice a week for two weeks; for adverse clinical observations / reduction in white blood cells and lymphocytes in the blood: compared to Compound 23 LNPs
# Protocol: NT-beta-Actin mRNA LNPs with different ionizable lipids were administered IV to C57BL/6 mice, inoculated with MC38.K cells, via the tail vein for a total of four doses (twice a week for two consecutive weeks) at a concentration of 1.0 mg/kg. Bodyweights were monitored and blood was collected pre-dose, 24 hours post first dose, 24 hours post fourth dose, and analyzed for cytokines, blood chemistry, and liver/spleen weights. Compounds 23, 99 and 101 were formulated using a peripheral process method. C57BL/6 mice were inoculated with MC38.K cells. Once tumors had grown, 1.0 mg/kg (Beta-Actin mRNA) of each LNP was intravenously administered twice a week for two weeks. […] N=6 per group for bodyweights, N=3 for blood analysis. Mean+/−SD.
# [2] = tested on: B16F10 Cell Line; test: Transfection of B16F10 Cell Line with FLuc mRNA LNPs (ONE-Glo EX luciferase signal); type: cell-based; conditions: 200 ng Fluc mRNA-LNP, 24 hours
# Summary of the method: (§1)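 LNPs (ionizable/structural/helper/PEG lipids, microfluidic mixing, mRNA quantified by RiboGreen) pre-incubated 30 min with mouse serum, then added at 200 ng mRNA per well in Opti-MEM to B16F10, MC38.K (5,000 cells/well) or AML12 (20,000 cells/well). Luminescence read after 24 h transfection.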
# [3] = tested on: Spleen; test: Ex-vivo luminescence signal from spleen after IV Fluc mRNA LNPs in CD1 mice (IVIS); conditions: tail vein 1.0 mg/kg Day 0 and Day 2, imaging 18 hours after second dose, Table 5
# [4] = tested on: MC38.K Cell Line; test: Transfection of MC38.K Cell Line with FLuc mRNA LNPs (ONE-Glo EX luciferase signal); type: cell-based; conditions: 200 ng Fluc mRNA-LNP, 24 hours; for Total Luciferin Signal (RLU) In Vitro-MC38: Table 5; for Total Luciferin Signal (RLU) In Vitro - MC38.K: Table 4
# Summary of the method: as §1
# [5] = tested on: Liver; test: Ex-vivo luminescence signal from liver after IV Fluc mRNA LNPs in CD1 mice (IVIS); conditions: tail vein 1.0 mg/kg Day 0 and Day 2, imaging 18 hours after second dose; for Total Liver Tissue Luciferin Signal (Photons/s) In Vivo-Cd1: Table 5; for Total Liver Tissue Luciferin Signal (Photons/s) Ex-vivo - CD1: Table 4
# [6] = tested on: liver, tumor, and spleen; test: Biodistribution of Fluc mRNA LNPs in MC38.K-inoculated Albino B6 mice (ex vivo luminescence); conditions: Albino B6 mice with MC38.K, 1.0 mg/kg IV, 18 hours
# Protocol: Fluc mRNA LNPs were administered to Albino B6 mice, inoculated with MC38.K cells, via the tail vein at 1.0 mg/kg. Eighteen hours later, bioluminescence was measured using an IVIS Spectrum imager. Mice were treated with 150 mg/kg luciferin substrate administered via intraperitoneal injection. Afterwards, mice were euthanized, and the lung, liver, spleen, and tumor were harvested for ex vivo imaging. All procedures were conducted according to the approved IACUC guidelines. N=5 per group. Data analysis was performed in Graphpad Prism 10. Values are reported as mean+/−standard deviation, unless specified otherwise. Ex-Vivo luminescence of liver, tumor, and spleen organs after 1.0 mg/kg IV injection of Peripheral LNPs. N=4 mice per group. (Mean±SD, n=4/group).
# [7] = tested on: AML12 Cell Line; test: Transfection of AML12 Cell Line with FLuc mRNA LNPs (ONE-Glo EX luciferase signal); type: cell-based; conditions: 200 ng Fluc mRNA-LNP, 24 hours
# Summary of the method: as §1
# [8] = tested on: hepatocytes; test: Comparative study of fluoro v. non-fluoro compounds: Firefly Luciferase transfection efficiency; type: cell-based; conditions: Firefly Luciferase expression in hepatocytes; pairs Compound 54 v. 58 and Compound 68 v. 67
# Description: Transfection efficiency was compared between three pairs of compounds, Compound 54 v. Compound 58, Compound 68 v. Compound 67, and Compound 37 v. Compound 61. For each pair, the compounds only differ on one fluoro-substitution at the end of an alkyl chain. For example, the structures of Compound 54 and Compound 58 are shown below:
# In vitro and in vivo comparison of Firefly Luciferase expression data of fluoro v. non-fluoro compounds were obtained according to procedure similar to those in Example 3 and Example 7. […] Compound 58 and Compound 68 v. Compound 67 in hepatocytes.
# [9] = tested on: Macaca fascicularis Cynomolgus monkeys; test: NHP study 2: weekly IV infusion of hEPO mRNA-LNP; type: in vivo; conditions: weekly IV infusion 0.1 mg/kg hEPO mRNA-LNP
# Protocol: Male cynomolgus monkeys (Biomere, Richmond CA) were 4-6 years old and weighed 4-7 kg at the initiation of dosing. Monkeys were housed in stainless steel cages and provided with Monkey Diet 5038 daily except during times of fasting. Filtered tap water was provided to the animals ad libitum including during fasting times. Temperature of the animal room was kept between 64-84° F., humidity of 30-70%, and with a light/dark cycle of 12 hours except during designated procedures. Pre-dosing treatment with Famotidine (0.5 mg/kg), Diphenhydramine (5 mg/kg), and Dexamethasone (1 mg/kg) was performed prior to dosing of LNPs. Animals received weekly intravenous IV infusions of human erythropoietin encapsulated mRNA lipid nanoparticles (Compound 23, hEPO mRNA-LNP, 0.1 mg/kg). A total of four doses were administered. Prior and after dosing, body weights and temperature were monitored and blood samples were collected pre-dose, 2, 6, 24, 48, and 168 hours. All procedures were conducted according to the approved IACUC guidelines. The results are shown in FIG. 14, FIG. 15, FIG. 16, and FIG. 17.
# [10] = tested on: MC38.K tumors; test: Intratumor delivery of Firefly Luciferase mRNA-LNPs in MC38.K tumor-bearing mice (IVIS); type: in vivo; conditions: Albino B6 mice, MC38.K tumors 250 mm^3, 1.0 mg/kg intratumoral, IVIS 18 hours post dose
# Protocol: Intratumor Delivery of Compound 23 versus Benchmark 1. Albino B6 mice were inoculated with MC38.K cancer cells. Once tumors reached 250 mm^3, 1.0 mg/kg of Firefly Luciferase mRNA-LNPs containing either Benchmark 1 or Compound 23 as the ionizable lipid component was dosed intratumorally. Takedown and IVIS imaging were performed 18 hours post dose. N=5 mice per group.
# [11] = tested on: Balb/c mice; test: Multi-dose tolerability screening of NT-beta-Actin mRNA LNPs in naive Balb/c mice; type: in vivo; conditions: 1.0 mg/kg IV twice a week for four weeks
# Protocol: Multi-dose Tolerability Screening of Compound 23-LNPs: Compound 23 and Benchmark 1 were formulated using a standard process method and injected (1.0 mg/kg, IV) twice a week for four weeks into naïve Balb/c mice. NT-beta-Actin mRNA LNPs were administered IV to Balb/c mice via the tail vein for a total of eight doses (twice a week for four consecutive weeks) at a concentration of 1.0 mg/kg. Bodyweights were monitored and blood was collected pre-dose, 24 hours post first dose, 24 hours post-fourth dose, and 24 hours post-eighth dose and analyzed for cytokines, blood chemistry, and liver/spleen weights. Data analysis was performed in Graphpad Prism 10. Values are reported as mean+/−standard deviation, unless specified otherwise. […] N=6 per group.
# [12] = Formulation of mRNA encapsulated lipid nanoparticles (microfluidic mixing, ribogreen assay); type: physicochemical; conditions: Table 4
# Protocol: mRNA encapsulated lipid nanoparticles (mRNA LNPs) were formulated using microfluidic mixing with a PNI Ignite instrument. Briefly, lipids (ionizable: structural: helper: PEG) were dissolved in ethanol and mixed with and aqueous solution of mRNA. These mRNA-loaded dispersions were then neutralized via a buffer exchange with a pre-determined buffer overnight. Afterwards, formed LNPs were concentrated with Amicon filter centrifugation, filtered, concentration of mRNA determined through a ribogreen assay, and frozen at −80° C. until use.
structure (smiles),measurement,setting,value
"CCCCCCCC/C=C\CCCCCCC1CN(CCOC(=O)CCN(C)C)CC(CCCCCC(=O)OC(CCCCCCCC)CCCCCCC(C)C)O1 (stereo not drawn) [Compound 99, 2-methylheptadecan-9-yl (Z)-6-(4-(2-((3-(dimethylamino)propanoyl)oxy)ethyl)-6-(hexadec-7-en-1-yl)morpholin-2-yl)hexanoate]",tolerability,[1],improved tolerability
same,adverse clinical observations,[1],less adverse clinical observations
same,reduction in white blood cells and lymphocytes in the blood,[1],less of a reduction in white blood cells and lymphocytes
same,Total Luciferin Signal (RLU) In Vitro - B16F10,[2]; Table 5,5.27E+05 RLU
same,Total Spleen Tissue Luciferin Signal (Photons/s) In Vivo-Cd1,[3],2.78E+07 Photons/s
same,Total Luciferin Signal (RLU) In Vitro-MC38,[4],7.66E+04 RLU
same,Total Liver Tissue Luciferin Signal (Photons/s) In Vivo-Cd1,[5],1.81E+09 Photons/s
same,expression in liver and spleen (ex-vivo luminescence),[6],significantly less expression
same,expression in solid tumor tissue (ex-vivo luminescence),[6],nearly equivalent expression
same,Total Luciferin Signal (RLU) In Vitro - AML12,[7]; Table 5,1.00E+05 RLU
"CCCCCCCCC(CCCCCCCC)OC(=O)CCCCCCCN(CCO)CCCCCCCOC(=O)CCCCCCCC=C(C)C [Compound 54, 7-((8-(heptadecan-9-yloxy)-8-oxooctyl)(2-hydroxyethyl)amino)heptyl 10-methylundec-9-enoate]",Total Luciferin Signal (RLU) In Vitro - B16F10,[2]; Table 4,7.25E+05 RLU
same,difference in transfection efficiency within fluoro v. non-fluoro pair,[8],Statistically significant difference in transfection efficiency
same,Total Luciferin Signal (RLU) In Vitro - MC38.K,[4],5.12E+06 RLU
same,Total Liver Tissue Luciferin Signal (Photons/s) Ex-vivo - CD1,[5],8.29E+09 Photons/s
same,Total Luciferin Signal (RLU) In Vitro - AML12,[7]; Table 4,1.05E+06 RLU
"CCCCCCCCC(CCCCCCCCF)OC(=O)CCCCCCCN(CCO)CCCCCCCC(=O)OCCCCCCCC=C(C)C (stereo not drawn) [Compound 58, 1-fluoroheptadecan-9-yl 8-((2-hydroxyethyl)(8-((9-methyldec-8-en-1-yl)oxy)-8-oxooctyl)amino)octanoate]",Total Luciferin Signal (RLU) In Vitro - B16F10,[2]; Table 4,4.03E+05 RLU
same,difference in transfection efficiency within fluoro v. non-fluoro pair,[8],Statistically significant difference in transfection efficiency
same,Total Luciferin Signal (RLU) In Vitro - MC38.K,[4],4.80E+06 RLU
same,Total Liver Tissue Luciferin Signal (Photons/s) Ex-vivo - CD1,[5],9.65E+09 Photons/s
same,Total Luciferin Signal (RLU) In Vitro - AML12,[7]; Table 4,2.18E+06 RLU
CCCCCCCCCOC(=O)CCCCCCCN(CCO)CCCCCCCC(=O)OC(CCCCCCCC)CCCCCCCCF (stereo not drawn) [Compound 23],survival,[1],all mice survived
same,"tolerability (body weight, temperature, liver blood chemistry)",[9]; 4 doses,reasonable tolerability
same,"generation of red blood cells (hematocrit, absolute reticulocyte counts)",[9]; four doses,consistent generation of red blood cells over four repeated doses
same,hEPO protein expression over repeated doses,[9]; four doses,consistent protein expression over repeated doses
same,clearance of the lipid from blood / serum,[9]; repeated doses,cleared from the blood without any observation of accumulation over repeated doses
same,Total Luciferin Signal (RLU) In Vitro - B16F10,[2]; Table 4,9.60E+05 RLU
same,intratumor delivery performance,[10],comparable delivery performance as that of Benchmark 1
same,bodyweights or survival rate,"[11]; among Compound 23, Benchmark 1 and delivery buffer",Comparable bodyweights or survival rate
same,tolerability,[11]; versus delivery buffer,comparable tolerability
same,Total Luciferin Signal (RLU) In Vitro - MC38.K,[4],2.00E+06 RLU
same,Total Liver Tissue Luciferin Signal (Photons/s) Ex-vivo - CD1,[5],5.15E+09 Photons/s
same,Total Luciferin Signal (RLU) In Vitro - AML12,[7]; Table 4,4.66E+05 RLU
CCCCCCCCCOC(=O)CCCCCCCN(CCF)CCCCCCCC(=O)OC(CCCCCCCC)CCCCCCCC [Compound 43],mRNA encapsulation in LNP,[12],Inherent Lipid Properties Result in No mRNA Encapsulation
"CCCCCCCCC(CCCCCCCCF)OC(=O)CCCCCCCN(CCCCO)CCCCCCC(C)C(=O)OCCCCCCCCC(C)C (stereo not drawn) [Compound 67, 9-methyldecyl 8-((8-((1-fluoroheptadecan-9-yl)oxy)-8-oxooctyl)(4-hydroxybutyl)amino)-2-methyloctanoate]",Total Luciferin Signal (RLU) In Vitro - B16F10,[2]; Table 4,2.75E+06 RLU
same,difference in transfection efficiency within fluoro v. non-fluoro pair,[8],Statistically significant difference in transfection efficiency
same,Total Luciferin Signal (RLU) In Vitro - MC38.K,[4],3.24E+07 RLU
same,Total Liver Tissue Luciferin Signal (Photons/s) Ex-vivo - CD1,[5],5.31E+09 Photons/s
same,Total Luciferin Signal (RLU) In Vitro - AML12,[7]; Table 4,4.35E+06 RLU
"CCCCCCCCC(CCCCCCCC)OC(=O)CCCCCCCN(CCCCO)CCCCCCC(C)C(=O)OCCCCCCCCC(C)C (stereo not drawn) [Compound 68, 9-methyldecyl 8-((8-(heptadecan-9-yloxy)-8-oxooctyl)(4-hydroxybutyl)amino)-2-methyloctanoate]",Total Luciferin Signal (RLU) In Vitro - B16F10,[2]; Table 4,2.83E+06 RLU
same,difference in transfection efficiency within fluoro v. non-fluoro pair,[8],Statistically significant difference in transfection efficiency
same,Total Luciferin Signal (RLU) In Vitro - MC38.K,[4],1.60E+07 RLU
same,Total Liver Tissue Luciferin Signal (Photons/s) Ex-vivo - CD1,[5],1.06E+10 Photons/s
same,Total Luciferin Signal (RLU) In Vitro - AML12,[7]; Table 4,2.89E+06 RLU
"CCCCCCCCCOC(=O)CCCCCC1CN(CCOC(=O)CCN(C)C)CC(CCCCCC(=O)OC(CCCCCCCC)CCCCCCCC)O1 (stereo not drawn) [Compound 101, heptadecan-9-yl 6-(4-(2-((3-(dimethylamino)propanoyl)oxy)ethyl)-6-(6-(nonyloxy)-6-oxohexyl)morpholin-2-yl)hexanoate]",tolerability,[1],improved tolerability
same,adverse clinical observations,[1],less adverse clinical observations
same,reduction in white blood cells and lymphocytes in the blood,[1],less of a reduction in white blood cells and lymphocytes
same,Total Luciferin Signal (RLU) In Vitro - B16F10,[2]; Table 5,6.73E+04 RLU
same,Total Spleen Tissue Luciferin Signal (Photons/s) In Vivo-Cd1,[3],1.57E+08 Photons/s
same,Total Luciferin Signal (RLU) In Vitro-MC38,[4],6.90E+05 RLU
same,Total Liver Tissue Luciferin Signal (Photons/s) In Vivo-Cd1,[5],6.70E+08 Photons/s
same,Total Luciferin Signal (RLU) In Vitro - AML12,[7]; Table 5,9.36E+04 RLU

# From patent US20260116845A1, “LIPIDS AND COMPOSITIONS THEREOF” (Kernal Biologics, Inc., priority 2023, published 2026)
